Literature values, collected in patent US20070293937A1, “Endoluminal medical device for local delivery of cathepsin inhibitors, method of making and treating” (MED Institute, Inc., priority 2006, published 2007).
Blank lines part the entries; values can stand above or below the compound they belong to. Where a SMILES comes first, the peptide text is derived from it. The star is where a group is joined. CHN2 = [N-]=[N+]=C*

Experiments:
[1] = molecular target: cathepsin C (Homo sapiens, UniProt P53634); details: natural inhibitors
[2] = molecular target: cathepsin C; details: Tompson et al.
[3] = tested on: cathepsin C; details: Green and Shaw, J. Biol. Chem. 1981
[4] = tested on: purified cathepsin C; details: as found by Kam et al.

Chain of cathepsin C (Homo sapiens, UniProt P53634) (P53634 25-463, species assumed): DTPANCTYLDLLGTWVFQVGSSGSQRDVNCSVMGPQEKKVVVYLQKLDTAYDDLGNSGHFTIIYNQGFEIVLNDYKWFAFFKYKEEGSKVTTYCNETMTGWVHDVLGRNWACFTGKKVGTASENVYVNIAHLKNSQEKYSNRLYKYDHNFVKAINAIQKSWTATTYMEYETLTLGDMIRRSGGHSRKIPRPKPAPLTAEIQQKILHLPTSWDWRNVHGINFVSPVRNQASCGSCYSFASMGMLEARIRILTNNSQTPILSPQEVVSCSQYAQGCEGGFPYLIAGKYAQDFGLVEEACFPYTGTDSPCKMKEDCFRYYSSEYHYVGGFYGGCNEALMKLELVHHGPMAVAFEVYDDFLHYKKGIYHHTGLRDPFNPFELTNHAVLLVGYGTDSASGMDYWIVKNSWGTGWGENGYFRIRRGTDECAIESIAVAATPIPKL

Compound: CC(C)C[C@H](NC(=O)[C@H]1O[C@@H]1C(=O)O)C(=O)NCCCCN=C(N)N [Compound E-64, E-64]
inhibition of cathepsin C (in words) [1]: inhibit cathepsin C at high inhibitor concentrations

Ki ([2]; reversible nitrile inhibitor, J. Med. Chem. 1986, read-out: Kl value): 2.7 µM
Compound: N#CC(Cc1ccccc1)NC(=O)CN (stereo not shown) [Gly-NHCH(CH2Ph)CN]

Compound: [N-]=[N+]=CC(=O)[C@H](Cc1ccccc1)NC(=O)CN [Gly-Phe-CHN2] (H-Gly-Phe-CHN2)
kobs/[l] [3]: 10^4 M^−1 s^−1
inhibition of cathepsin C (in words) [4]: potent inhibitor

Compound: CS(=O)(=O)C=CC(Cc1ccccc1)NC(=O)CN (stereo not drawn) [Gly-Phe-VS—CH3]
k2/Kl ([2]; J. Med. Chem. 1986): 56 M⁻¹ s⁻¹

Compound: CC(=O)N[C@@H](CC(C)C)C(=O)N[C@@H](CC(C)C)C(=O)N[C@H](C=O)CCCNC(=N)N [leupeptin]
inhibition of cathepsin C (in words) [1]: inhibit cathepsin C at high inhibitor concentrations

Compound: cystatin
inhibition of cathepsin C (in words) [1]: inhibit cathepsin C at high inhibitor concentrations
